Laboratory results published in US20090281093A1, “ANTI-INFLAMMATORY COMPOUNDS” (C.T.G. PHARMA S.R.L., priority 2005, published 2009).

Experiment: Activity and safety: five-day once daily gavage treatment of rats, deaths and autopsy of the gastrointestinal tract
Type: in vivo
Conditions: male rats, once daily by gavage for five days, diclofenac 20 mg/kg, compound of example 1 36 mg/kg; for % deaths: 10 animals/group; for % gastrointestinal ulcer: autopsy at fifth day 6 hr after treatment
Method: Thirty male rats (150-200 g) were divided into three groups of 10 animals/group and treated with vehicle, diclofenac (20 mg/kg) and the compound of example 1 (36 mg/kg) for five days once daily by gavage. The vehicle consisted in 1 mL of acidified aqueous solution. At the fifth day, survival animals were sacrificed 6 hr after the treatment, by an overdose of ether, and autopsied to detect any pathological changes, particularly in the gastrointestinal tract. Prostaglandin E2 was evaluated in the liver homogenate by standard enzyme immunoassay procedure as described by Warner T D et al. (J.P.E.T. 2004, 310, 642-7).

SMILES | % deaths [%] | % gastrointestinal ulcer [%]
O=C(Cc1ccccc1Nc1c(Cl)cccc1Cl)Oc1ccc(-c2cc(=S)ss2)cc1 [Compound example 1, 2-[(2,6-dichlorophenyl)amino]benzeneacetic acid 4-(3H-1,2,dithiole-3-thione-5-yl)-phenyl ester] | 0 | 0
O=C(O)Cc1ccccc1Nc1c(Cl)cccc1Cl [Diclofenac] | 70 | 100
